Our source for the IC50 values is US20260125378A2, “Heterocyclic Compounds” (BeOne Medicines I GmbH, priority 2023, published 2026).

Structures are written as SMILES. Some results are limits rather than exact numbers.

Test [1] addresses T1, Full length DGKζ (in-house protein M1-V929) (Homo sapiens, UniProt Q13574).
T1 construct: His (N); TEV site (N); made in house; host or cells: Sf9 insect cells (Bac-to-Bac baculovirus)
Nature of the test: Biochemical DGK IC50 assay (ADP-Glo, lipid micelle substrate), DGKζ. The settings on record: 1 hour preincubation, 1 hour reaction, room temperature. An outline of the steps: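 Enzyme: full-length human DGKζ M1-V929, produced in baculovirus-infected Sf9 cells; substrate DAG/PS micelles. Buffer 50 mM HEPES, 10 mM MgCl2, 0.01 mM CaCl2, 0.1 mM Na3VO4.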

Test [2] deals with T2, Full length DGKα (D21-10BG, SignalChem) (Homo sapiens, UniProt P23743).
T2 construct: Full length DGKα (D21-10BG, SignalChem); purchased SignalChem D21-10BG
Nature of the test: Biochemical DGK IC50 assay (ADP-Glo, lipid micelle substrate), DGKα. The settings on record: 1 hour preincubation, 1 hour reaction, room temperature. The gist of the method: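 ADP-Glo luminescence quantified ADP produced after a 1 h room-temperature reaction of full-length DGKα on DAG/PS micelles, in HEPES buffer containing MgCl2, CaCl2, vanadate, BSA and Tween-20. IC50 values derive from activity inhibition over a compound concentration series.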
On the technique in general: In ADP-Glo the light output rises with the ADP produced.

T1 sequence (Q13574 1-929 isoform Q13574-4): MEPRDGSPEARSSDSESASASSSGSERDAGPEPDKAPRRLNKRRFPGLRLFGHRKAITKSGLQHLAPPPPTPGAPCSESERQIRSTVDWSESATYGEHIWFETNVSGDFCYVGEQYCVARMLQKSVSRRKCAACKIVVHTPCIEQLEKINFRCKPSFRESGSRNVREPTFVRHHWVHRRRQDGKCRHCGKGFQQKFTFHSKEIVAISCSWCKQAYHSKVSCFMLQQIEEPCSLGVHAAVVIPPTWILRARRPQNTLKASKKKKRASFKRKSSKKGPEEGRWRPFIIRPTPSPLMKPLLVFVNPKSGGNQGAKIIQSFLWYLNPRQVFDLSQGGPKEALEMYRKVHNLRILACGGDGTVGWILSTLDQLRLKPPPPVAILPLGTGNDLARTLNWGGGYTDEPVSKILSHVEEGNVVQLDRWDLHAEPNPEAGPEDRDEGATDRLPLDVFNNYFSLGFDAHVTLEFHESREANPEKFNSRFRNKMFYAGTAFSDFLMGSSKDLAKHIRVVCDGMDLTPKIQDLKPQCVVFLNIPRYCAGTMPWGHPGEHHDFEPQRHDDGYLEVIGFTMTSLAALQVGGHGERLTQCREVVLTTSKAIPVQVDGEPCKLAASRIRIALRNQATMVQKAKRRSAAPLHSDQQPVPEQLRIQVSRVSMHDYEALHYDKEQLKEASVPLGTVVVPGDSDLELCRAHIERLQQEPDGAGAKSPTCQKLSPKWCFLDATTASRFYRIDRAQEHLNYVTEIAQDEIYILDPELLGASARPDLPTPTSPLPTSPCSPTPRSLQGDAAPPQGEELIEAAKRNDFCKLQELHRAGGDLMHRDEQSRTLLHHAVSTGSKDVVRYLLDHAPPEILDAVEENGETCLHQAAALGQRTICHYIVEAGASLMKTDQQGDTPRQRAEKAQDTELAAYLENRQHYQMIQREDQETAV
T2 sequence (P23743 whole entry): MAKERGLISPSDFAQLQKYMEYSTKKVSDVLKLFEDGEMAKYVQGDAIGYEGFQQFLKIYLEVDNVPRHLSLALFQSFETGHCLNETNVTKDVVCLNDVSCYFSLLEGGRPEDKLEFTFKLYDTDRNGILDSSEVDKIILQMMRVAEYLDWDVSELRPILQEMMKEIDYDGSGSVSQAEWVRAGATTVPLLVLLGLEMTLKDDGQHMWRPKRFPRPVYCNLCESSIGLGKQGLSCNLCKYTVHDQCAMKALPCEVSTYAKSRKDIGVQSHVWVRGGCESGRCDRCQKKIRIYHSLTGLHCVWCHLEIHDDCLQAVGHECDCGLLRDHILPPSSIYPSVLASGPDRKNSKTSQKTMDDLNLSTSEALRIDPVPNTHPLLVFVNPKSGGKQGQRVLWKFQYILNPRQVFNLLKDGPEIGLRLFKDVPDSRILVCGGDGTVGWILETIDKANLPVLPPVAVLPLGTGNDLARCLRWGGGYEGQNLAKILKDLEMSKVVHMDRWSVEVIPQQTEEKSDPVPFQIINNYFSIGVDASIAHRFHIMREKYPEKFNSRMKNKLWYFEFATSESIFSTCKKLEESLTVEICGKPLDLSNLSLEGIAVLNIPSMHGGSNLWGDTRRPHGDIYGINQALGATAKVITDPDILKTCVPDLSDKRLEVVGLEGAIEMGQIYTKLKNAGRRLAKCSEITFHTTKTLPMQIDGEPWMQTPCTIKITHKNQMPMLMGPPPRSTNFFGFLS

For the molecule `CCn1c(CC#N)nc2c(N3C[C@@H](C)N(C(C)c4ccc5c(n4)OC(C)(C)C5)C[C@@H]3C)nc(=O)n(C)c21` (stereo partly drawn) [Compound A180, 2-(6-((2S,5R)-4-(1-(2,2-dimethyl-2,3-dihydrofuro[2,3-b]pyridin-6-yl)ethyl)-2,5-dimethylpiperazin-1-yl)-9-ethyl-3-methyl-2-oxo-3,9-dihydro-2H-purin-8-yl)acetonitrile], the results for the IC50 in test [1] and in test [2] were 4.44 µM and above 150 µM, respectively.
For `CCn1c(CC#N)nc2c(N3C[C@@H](C)N(C(C)c4cccc(CN5CCOCC5)c4)C[C@@H]3C)nc(=O)n(C)c21` (stereo partly drawn) [Compound A142, 2-(6-((2S,5R)-2,5-dimethyl-4-(1-(3-(morpholinomethyl)phenyl)ethyl)piperazin-1-yl)-9-ethyl-3-methyl-2-oxo-3,9-dihydro-2H-purin-8-yl)acetonitrile], the figures for the IC50 in test [1] and in test [2] were 6.3 µM and above 150 µM, respectively.
Regarding `CCn1c(CC#N)nc2c(N3C[C@@H](C)N(C(C)c4cccc(C(F)(F)F)n4)C[C@@H]3C)nc(=O)n(C)c21` (single isomer, unassigned) [Compound A118b], the values for the concentration for half-maximal inhibition (IC50) in test [1] and in test [2] were 0.103 µM and 65.6 µM, respectively.
The like results for `CCn1c(CC#N)nc2c(N3C[C@@H](C)N(C(C)c4cc(C)c5c(c4)OC(C)(C)O5)C[C@@H]3C)nc(=O)n(C)c21` (stereo partly drawn) [Compound A177, 2-(6-((2S,5R)-2,5-dimethyl-4-(1-(2,2,7-trimethylbenzo[d][1,3]dioxol-5-yl)ethyl)piperazin-1-yl)-9-ethyl-3-methyl-2-oxo-3,9-dihydro-2H-purin-8-yl)acetonitrile] were, in that order, 0.168 µM and 72.6 µM.
For the molecule `COC[C@H]1CN(C(C)c2ccc(F)cc2C(F)(F)F)[C@H](C)CN1c1nc(=O)n(C)c2c1nc(CC#N)n2C` (stereo partly drawn) [Compound A10, 2-(6-((2R,5R)-4-(1-(4-fluoro-2-(trifluoromethyl)phenyl)ethyl)-2-(methoxymethyl)-5-methylpiperazin-1-yl)-3,9-dimethyl-2-oxo-3,9-dihydro-2H-purin-8-yl)acetonitrile], the IC50 in test [1] was 0.025 µM; in test [2], above 10 µM.
Regarding `CCn1c(CC#N)nc2c(N3C[C@@H](C)N(C(C)c4ccc5c(c4)OC(C)(C)O5)C[C@@H]3C)nc(=O)n(C)c21` (single isomer, unassigned) [Compound A85a], the figures for the concentration for half-maximal inhibition (IC50) in test [1] and in test [2] were 1.25 µM and 148 µM, respectively.
On to `CCn1c(CC#N)nc2c(N3C[C@@H](C)N(C(C)c4ccc5c(c4)OC(C)(C)CC5=O)C[C@@H]3C)nc(=O)n(C)c21` (stereo partly drawn) [Compound A81, 2-(6-((2S,5R)-4-(1-(2,2-dimethyl-4-oxochroman-7-yl)ethyl)-2,5-dimethylpiperazin-1-yl)-9-ethyl-3-methyl-2-oxo-3,9-dihydro-2H-purin-8-yl)acetonitrile], for which the IC50 in test [1] is 0.007 µM; in test [2], above 150 µM.
The like results for `CCn1c(CC#N)nc2c(N3C[C@@H](C)N(C(C)c4cc5c(cc4F)OC(C)(C)CO5)C[C@@H]3C)nc(=O)n(C)c21` (single isomer, unassigned) [Compound A156a] were, in that order, 0.496 µM and 68.6 µM.
As for `CCn1c(CC#N)nc2c(N3C[C@@H](C)N(C(C)c4ccc(OC)c(C(C)(F)F)c4)C[C@@H]3C)nc(=O)n(C)c21` (stereo partly drawn) [Compound A39, 2-(6-((2S,5R)-4-(1-(3-(1,1-difluoroethyl)-4-methoxyphenyl)ethyl)-2,5-dimethylpiperazin-1-yl)-9-ethyl-3-methyl-2-oxo-3,9-dihydro-2H-purin-8-yl)acetonitrile], the half-maximal inhibitory concentration (IC50) in test [1] was 0.211 µM; in test [2], above 150 µM.
The like results for `CCn1c(CC#N)nc2c(N3C[C@@H](C)N(C(C)c4ccc5c(c4)C(=O)N(C)CO5)C[C@@H]3C)nc(=O)n(C)c21` (stereo partly drawn) [Compound A192, 2-(6-((2S,5R)-2,5-dimethyl-4-(1-(3-methyl-4-oxo-3,4-dihydro-2H-benzo[e][1,3]oxazin-6-yl)ethyl)piperazin-1-yl)-9-ethyl-3-methyl-2-oxo-3,9-dihydro-2H-purin-8-yl)acetonitrile] were, in that order, 0.119 µM and above 150 µM.
With `CC[C@@H]1CN(c2nc(=O)n(C)c3c2nc(CC#N)n3C)[C@@H](C)CN1C(C)c1ccc2ncc(C)nc2c1` (single isomer, unassigned) [Compound A50a], the figures for the half-maximal inhibitory concentration (IC50) in test [1] and in test [2] were 0.004 µM and 24.7 µM, respectively.
Regarding `CCn1c(CC#N)nc2c(N3C[C@@H](C)N(C(C)c4ccc5c(c4)OC(F)(F)O5)C[C@@H]3C)nc(=O)n(C)c21` (single isomer, unassigned) [Compound A99a], the 50% inhibitory concentration (IC50) came out at 0.071 µM in test [1] and 34.5 µM in test [2].
The like results for `CC(c1cc2ccccc2cn1)N1C[C@H](C)N(c2nc(=O)n(C)c3c2nc(CC#N)n3C)C[C@H]1C` (stereo partly drawn) [Compound A154, 2-(6-((2S,5R)-4-(1-(isoquinolin-3-yl)ethyl)-2,5-dimethylpiperazin-1-yl)-3,9-dimethyl-2-oxo-3,9-dihydro-2H-purin-8-yl)acetonitrile] were, in that order, 0.178 µM and 2.43 µM.
Take `COC[C@H]1CN(C(C)c2ccc3c(c2)OCCO3)[C@H](C)CN1c1nc(=O)n(C)c2c1nc(CC#N)n2C` (single isomer, unassigned) [Compound A11b]: the IC50 turned out to be 0.014 µM in test [1] and 11.9 µM in test [2].
For `CCn1c(CC#N)nc2c(N3C[C@@H](C)N(C(C)c4ccc(F)c(C(F)(F)F)c4)C[C@@H]3C)nc(=O)n(C)c21` (stereo partly drawn) [Compound A113, 2-(9-ethyl-6-((2S,5R)-4-(1-(4-fluoro-3-(trifluoromethyl)phenyl)ethyl)-2,5-dimethylpiperazin-1-yl)-3-methyl-2-oxo-3,9-dihydro-2H-purin-8-yl)acetonitrile] the same measures were 0.018 µM and above 150 µM.
For `CCn1c(CC#N)nc2c(N3C[C@@H](C)N(C(C)c4cc5c(cc4F)OCC(C)(C)O5)C[C@@H]3C)nc(=O)n(C)c21` (single isomer, unassigned) [Compound A157a], the figures for the half-maximal inhibitory concentration (IC50) in test [1] and in test [2] were 0.028 µM and 11.6 µM, respectively.
With `CC(c1ccc2c(c1)OC(C)(C)O2)N1C[C@H](C)N(c2nc(=O)n(C)c3c2nc(CC#N)n3C)C[C@H]1C` (stereo partly drawn) [Compound A98, 2-(6-((2S,5R)-4-(1-(2,2-dimethylbenzo[d][1,3]dioxol-5-yl)ethyl)-2,5-dimethylpiperazin-1-yl)-3,9-dimethyl-2-oxo-3,9-dihydro-2H-purin-8-yl)acetonitrile], the half-maximal inhibitory concentration (IC50) came out at 0.005 µM in test [1] and 11.6 µM in test [2].
The like results for `CCn1c(CC#N)nc2c(N3C[C@@H](C)N(C(C)c4ccnc(C(C)(C)C)c4)C[C@@H]3C)nc(=O)n(C)c21` (stereo partly drawn) [Compound A129, 2-(6-((2S,5R)-4-(1-(2-(tert-butyl)pyridin-4-yl)ethyl)-2,5-dimethylpiperazin-1-yl)-9-ethyl-3-methyl-2-oxo-3,9-dihydro-2H-purin-8-yl)acetonitrile] were, in that order, 0.004 µM and above 150 µM.
For `CC(c1ccc(F)cc1C(F)(F)F)N1C[C@H](C)N(c2cc(=O)n(C)c3c2nc(CC#N)n3C)C[C@H]1C` (stereo partly drawn) [Compound A2, 2-(7-((2S,5R)-4-(1-(4-fluoro-2-(trifluoromethyl)phenyl)ethyl)-2,5-dimethylpiperazin-1-yl)-3,4-dimethyl-5-oxo-4,5-dihydro-3H-imidazo[4,5-b]pyridin-2-yl)acetonitrile], the IC50 in test [1] was 0.092 µM; in test [2], above 150 µM.
`CC[C@H]1CN(C(C)c2ccc3ncc(C)nc3c2)[C@H](CC)CN1c1nc(=O)n(C)c2c1nc(CC#N)n2C` (single isomer, unassigned) [Compound A51b]: the half-maximal inhibitory concentration (IC50) came out at 0.265 µM in test [1] and 22.3 µM in test [2].
For `COc1cc(F)ccc1C(C)N1C[C@H](C)N(c2cc(=O)n(C)c3c2nc(CC#N)n3C)C[C@H]1C` (single isomer, unassigned) [Compound A4a], the IC50 in test [1] is 0.566 µM; in test [2], above 10 µM.
In the case of `CCn1c(CC#N)nc2c(N3C[C@@H](C)N(C(C)c4ccc5c(n4)OC(C)(C)CO5)C[C@@H]3C)nc(=O)n(C)c21` (single isomer, unassigned) [Compound A74a], the IC50 is 0.046 µM in test [1] and above 150 µM in test [2].
As for `Cc1cnc2ccc(C(C)N3C[C@H](C)N(c4c(F)c(=O)n(C)c5c4nc(CC#N)n5C)C[C@H]3C)cc2n1` (single isomer, unassigned) [Compound A23b], the IC50 in test [1] worked out at 0.094 µM; in test [2], 16.2 µM.
As for `CCn1c(CC#N)nc2c(N3C[C@@H](C)N(C(C)c4cc5c(cc4F)OC(C)(C)O5)C[C@@H]3C)nc(=O)n(C)c21` (single isomer, unassigned) [Compound A174a], the results for the IC50 in test [1] and in test [2] were 1.03 µM and 51.2 µM, respectively.
`CCn1c(CC#N)nc2c(N3C[C@@H](C)N(C(C)c4ccc5c(=O)cc(C)n(C)c5c4)C[C@@H]3C)nc(=O)n(C)c21` (stereo partly drawn) [Compound A155, 2-(6-((2S,5R)-4-(1-(1,2-dimethyl-4-oxo-1,4-dihydroquinolin-7-yl)ethyl)-2,5-dimethylpiperazin-1-yl)-9-ethyl-3-methyl-2-oxo-3,9-dihydro-2H-purin-8-yl)acetonitrile]: the IC50 turned out to be 1.21 µM in test [1] and 101 µM in test [2].
Regarding `Cc1cccc(C(C)N2C[C@H](C)N(c3c(F)c(=O)n(C)c4c3nc(CC#N)n4C)C[C@H]2C)c1C(F)(F)F` (single isomer, unassigned) [Compound A17b], the IC50 in test [1] came to 0.409 µM; in test [2] it was 1.58 µM.

The IC50 is the concentration needed to halve the response being measured.
